The test system of the assay is human cervical tumor cell line HeLa (ATCC CCL-2). Put plainly: SAC-Formation - Nocodazole-Induced Assay. It is filed as cell-based. The note with it: Homo sapiens, HeLa, 24 h, HeLa cells, nocodazole 0.1 μg/ml together with test compound, decrease of mitotic cells (phospho-histone H3 Ser10). Summed up:
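HeLa cells, plated overnight, were treated 24 h at 37 °C with nocodazole (0.1 μg/ml final) plus test compound (0.005–20 μM, 0.5% DMSO) added at the same time. After fixation, anti-phospho-histone H3 Ser10 and Hoechst staining gave the mitotic cell fraction by imaging. Values came from four-parameter Hill fits.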
As usually defined, the IC50 is the concentration needed to halve the response being measured. Regarding `Cc1nsc(Nc2cnc(C(F)(F)F)cn2)c1C(=O)Nc1ccc(CCC2CCN(CCC(F)(F)F)CC2)nc1` [Example 420, 3-Methyl-5-{[5-(trifluoromethyl)pyrazin-2-yl]amino}-N-(6-{2-[1-(3,3,3-trifluoro-propyl)piperidin-4-yl]ethyl}pyridin-3-yl)-1,2-thiazole-4-carboxamide], the IC50 came out at 120 nM.
For the molecule `CCN1CC[C@H](Oc2ccc(NC(=O)c3c(C)nsc3Nc3cnc(C(F)(F)F)cn3)cn2)[C@H](F)C1` [Example 424, N-(6-{[(3R,4S)-1-Ethyl-3-fluoropiperidin-4-yl]oxy}pyridin-3-yl)-3-methyl-5-{[5-(trifluoromethyl)pyrazin-2-yl]amino}-1,2-thiazole-4-carboxamide], the IC50 was found to be 74 nM.
For `Cc1nsc(Nc2cnc(C(F)(F)F)cn2)c1C(=O)Nc1ccc(OCCNC(=O)C(F)(F)F)nc1` [Example 425, 3-Methyl-N-(6-{2-[(trifluoroacetyl)amino]ethoxy}pyridin-3-yl)-5-{[5-(trifluoro-methyl)pyrazin-2-yl]amino}-1,2-thiazole-4-carboxamide], the IC50 was determined as 720 nM.
`Cc1nsc(Nc2cnc(C(F)(F)F)cn2)c1C(=O)Nc1ccc(F)c(OCCCNC(=O)C(F)(F)F)c1` [Example 427, N-(4-Fluoro-3-{3-[(trifluoroacetyl)amino]propoxy}phenyl)-3-methyl-5-{[5-(trifluoro-methyl)pyrazin-2-yl]amino}-1,2-thiazole-4-carboxamide]: the concentration for half-maximal inhibition (IC50) is 700 nM.
On to `Cc1nsc(Nc2cnc(C(F)(F)F)cn2)c1C(=O)Nc1ccc(OCCCNC(=O)C(F)(F)F)nc1` [Example 428, 3-Methyl-N-(6-{3-[(trifluoroacetyl)amino]propoxy}pyridin-3-yl)-5-{[5-(trifluoro-methyl)pyrazin-2-yl]amino}-1,2-thiazole-4-carboxamide], for which the IC50 came out at 890 nM.
As for `Cc1nsc(Nc2cnc(C(F)(F)F)cn2)c1C(=O)Nc1ccc(OCCN(C)C(=O)OC(C)(C)C)nc1` [Example 429, tert-Butyl methyl{2-[(5-{[(3-methyl-5-{[5-(trifluoromethyl)pyrazin-2-yl]amino}-1,2-thiazol-4-yl)carbonyl]amino}pyridin-2-yl)oxy]ethyl}carbannate], the IC50 was determined as 16 nM.
Under `Cc1nsc(Nc2cncc(C(F)(F)F)n2)c1C(=O)Nc1ccc(OCCN(C)C(=O)OC(C)(C)C)nc1` [Example 430, tert-Butyl methyl{2-[(5-{[(3-methyl-5-{[6-(trifluoromethyl)pyrazin-2-yl]amino}-1,2-thiazol-4-yl)carbonyl]amino}pyridin-2-yl)oxy]ethyl}carbannate] stands 11 nM.
`Cc1nsc(Nc2cnc(C(F)(F)F)cn2)c1C(=O)Nc1ccc(OC2CCNCC2)c(F)c1` [Example 431, N-[3-Fluoro-4-(piperidin-4-yloxy)phenyl]-3-methyl-5-{[5-(trifluoromethyl)pyrazin-2-yl]amino}-1,2-thiazole-4-carboxamide]: the IC50 is 10000 nM.
To `Cc1nsc(Nc2cnc3ccccc3n2)c1C(=O)Nc1cccc(NC(=O)C(F)(F)F)c1` [Example 432, 3-Methyl-5-(quinoxalin-2-ylamino)-N-{3-[(trifluoroacetyl)amino]phenyl}-1,2-thiazole-4-carboxamide] belongs 170 nM; to `Cc1nsc(Nc2ccc(C#N)cn2)c1C(=O)Nc1ccc(Nc2ccc(F)c(F)c2)nc1` [Example 433, 5-[(5-Cyanopyridin-2-yl)amino]-N-{6-[(3,4-difluorophenyl)amino]pyridin-3-yl}-3-methyl-1,2-thiazole-4-carboxamide], 210 nM; to `Cc1nsc(Nc2cnc3ccccc3n2)c1C(=O)Nc1ccc(NCCN(C)C(=O)OC(C)(C)C)nc1` [Example 434, tert-Butyl methyl(2-{[5-({[3-methyl-5-(quinoxalin-2-ylamino)-1,2-thiazol-4-yl]carbonyl}amino)pyridin-2-yl]amino}ethyl)carbamate], 970 nM.
`CC(=O)Nc1ccc(NC(=O)c2c(C)nsc2Nc2ccc(C#N)cn2)cn1` [Example 435, N-(6-Acetamidopyridin-3-yl)-5-[(5-cyanopyridin-2-yl)amino]-3-methyl-1,2-thiazole-4-carboxamide]: the IC50 is 12000 nM.

These data come from US20170334899A1, “AMINO-SUBSTITUTED ISOTHIAZOLES” (Bayer Pharma Aktiengesellschaft, priority 2014, published 2017).
